In US12331121B2, “Efflux pump-cancer antigen multi-specific antibodies and compositions, reagents, kits and methods related thereto” (William Robert Arathoon Living Trust Dated August 29, 2016, priority 2019, dated 2025):

What was measured:
naïve 293T cells = assay: Enhanced cell killing (chemosensitization) of naïve 293T cells with chemotherapeutic titration; assay type: cell-based, human
Method: (§1) HEK 293T, MCF-7, N6ADR and SKNF7 cell lines expressing Pgp were obtained from the American Type Culture Collection. N6/ADR cells is also referred to as NALM6/ADR cells. All cell lines and lines derived from them were maintained in RPMI 1640 or DMEM supplemented with up to 10% fetal bovine serum (Sigma), nonessential amino acids, and 2 mmol/L L-glutamine at 37° C. and 5% CO2 in a humidified incubator (unless otherwise indicated). Cells were used as supplied or were modified to overexpress (Ox) Pgp or were subject to having Pgp expression knocked down (KD) with lentiviral-mediated short hairpin RNA or knock out (KO) of the functional CD47 gene by CRISPR/Cas-mediated knock out technology essentially as described (Cong, L. et al. (2013) Science 339, 819-823). For vincristine and paclitaxel IC50 determination, cells were plated in normal growth medium and allowed to adhere overnight. Paclitaxel or vincristine (Sigma) were added in a dilution series and any modulators were added within ranges of 0 to 500 μM/L. Cell viability was measured 72 h later using the Celltiter-Glo Luminescent Cell Viability Assay (Promega).
FIG. 8 provides comparisons of binding and enhanced cell killing by different bispecific antibodies (with various humanized or chimerized heavy or light chain combinations). […] Columns 5-8 (“Binding (293)”, “Binding (293 KO CD47)”, Binding (293 KO CD47, OX ABCB1)”, and “Binding (293 OX ABCB1)”) provide FACS mean fluorescence intensities of antibodies binding to the indicated cell lines compared with non-binding control antibodies: “−”=˜zero, “±”=0 to ˜0.5 Log shift, “+”=˜1 Log shift, “++”=1→2 Log shift (see FIG. 3A for examples of non-binding controls and binding antibodies).

N6ADR cells = assay: Paclitaxel sensitization of N6ADR cells in vitro; assay type: cell-based, human; details: FIG. 5, 6; compared to chemo only
Method: as §1
FIG. 5 and FIG. 6A-6C illustrate the enhanced killing of cells, by the antineoplastic agent paclitaxel, when cells are bound by the 15D3.aCD47:MRK16 bispecific antibody (highlighted with arrows).

[1] = tested on: multidrug resistant N6ADR cells; assay: N6ADR tumor volume in mice (Example 2, FIG. 9); assay type: in vivo; details: antibody on day 0, 4, 7, 11; no chemotherapeutic agent
Method: N6ADR cells were injected into a cohort of 6 mice per test group prior to administration of the indicated antibodies. The antibodies were administered once palpable tumors reached a size of about 100-150 mm^3 (about 7 days after injection of tumor cells). Antibodies were administered on day 0, day 4, day 7, and day 11. Tumor volumes were measured and are plotted. Panel A: 15D3/MRK16 monoclonal anti-MDR1 antibody. Panel B: KT14/MRK16 monoclonal anti-CD47 antibody. Panel C: Co-administration of 15D3/MRK16 monoclonal anti-MDR1 antibody and KT14/MRK16 monoclonal anti-CD47 antibody. Panel D: KbisP1.1 antibody.
The indicated antibodies were administered with or without the chemotherapeutic agent paclitaxel. Antibody was dosed about 1-4 hrs prior to Paclitaxel.

[2] = tested on: CTG-2616 patient-derived breast tumors; assay: CTG-2616 patient-derived breast cancer model; assay type: in vivo, mice; details: antibody 6 mg/kg and paclitaxel 5 mg/kg
Excerpt: Cells: CTG-2616 is a ER^+/Her2^+ primary breast cancer, derived from a patient presenting with recurrent ductal adenocarcinoma of the breast.
Mice: 5-6-weeks-old athymic Nude-Foxn1nu female nude mice (Envigo) were used in this study.
Inoculation—Snap-Frozen pieces of patient-derived tumors were thawed, cut into 5×5×5 mm and were subcutaneously injected into anesthetized 5-6-week-old female nude mice under sterile conditions. For tumor implantation procedure, a 1-1.5 cm incision was made on the implantation site and forceps were used to implant the tumor fragment. When sufficient stock animals reached 1000-1500 mm^3, tumors were harvested for re-implantation into pre-study animals. Pre-study animals were implanted unilaterally on the left flank with tumor fragments harvested from stock animals. Each animal was implanted from a specific passage lot and documented. Pre-study tumor volumes were recorded for each experiment beginning seven to ten days after implantation. When tumors reached an average tumor volume of 150-300 mm^3, animals were matched by tumor volume into treatment or control groups to be used for dosing and dosing initiated on Day 0. All surgical procedures were conducted under sterile conditions. […]

## KBisP1.1: bispecific anti-MDR1/anti-CD47 antibody: 15D3 heavy chain, 5F9 (KT14) heavy chain, common MRK16 light chain, human IgG1
naïve 293T cells; FIG. 5, 6, compared to chemo only
  sensitivity of naïve 293T cells to paclitaxel: enhanced
naïve 293T cells; antibody 25 nM, compared to vincristine alone, FIG. 7
  in vitro killing of naïve 293T with vincristine: enhanced in vitro killing
naïve 293T cells; paclitaxel titration, FIG. 8
  Killing: enhanced 293 naïve cell-killing (sensitization): ++ (≥2 Log shift)
N6ADR cells
  sensitivity of N6ADR cells to paclitaxel: enhanced
[1]
  effect on tumor volume without paclitaxel: more efficacious than the co-administration
[2]
  tumor growth with paclitaxel: tumor growth inhibition
